# Patent publication US10624883B2, “Pulmonary hypertension preventative or therapeutic agent containing component exhibiting selenoprotein P activity-inhibiting effect” (priority 2016, dated 2020)
# Entries after “also recorded” stand apart in the source; their conditions may differ.
# Tests used:
# [1] = system: hypoxia-induced pulmonary hypertension mouse model; assay: Hypoxia-induced pulmonary hypertension mouse model (RVSP, right ventricular hypertrophy); type: in vivo; conditions: 10% O2 hypoxia, day 28
# Experimental: Eight-week-old male C57BL6/J mice (n=8 per group) were administered sanguinarine (5 mg/kg/day, daily for 28 days, oral administration). A product available from SSX (Cat. No. 1845, Sanguinarine Chloride 10 mg) was used as sanguinarine. A preparation method for a test solution for a treatment group was as follows: sanguinarine was first dissolved at 100 μg/μl in 100% DMSO and the solution was further dissolved in phosphate buffered saline (PBS) so that the final concentration of sanguinarine was 1 μg/μl. A test solution for a control group was prepared by dissolving DMSO at the same concentration in PBS (1% DMSO).
# From the test starting day, the mice were bred under a 10% O2 hypoxic environment to generate a hypoxia-induced pulmonary hypertension mouse model. From the same day, the test solutions for the control group and the treatment group were directly administered into the stomachs of the mice once daily through the use of a probe for mice. Regarding doses, the mice were measured for their body weights daily during a test period, and doses were calculated separately for the mice so as to achieve 5 mg/kg/day.
# An administration period (=hypoxic breeding period) was 28 days.
# After daily administration for 28 days, pulmonary hemodynamics and right ventricular hypertrophy were assessed at the end point (on day 28 after the start of hypoxic stimulation). The assessment of pulmonary hemodynamics was performed by directly measuring right ventricular systolic pressure (RVSP) with a pressure measurement catheter (Transonic Scisense) inserted into the right jugular vein. In addition, the assessment of right ventricular hypertrophy was performed by measuring right ventricular free wall (RV) weight in a dissected heart tissue to calculate its ratio to left ventricle plus septum (LV+Septum) weight (RV/(LV+Septum)). RV/(LV+Septum) serves as an indicator of right ventricular hypertrophy. A larger numerical value for RV/(LV+Septum) indicates a higher degree of right ventricular hypertrophy. In addition, in order to assess pulmonary vascular remodeling, staining for α-smooth muscle actin (α-SMA) in a lung tissue section was performed on day 28. Pulmonary vascular remodeling was assessed by performing immunostaining for α-smooth muscle actin (α-SMA) in a lung tissue section and quantitatively assessing the extent of muscularization (classified into three stages, i.e., non-muscularization, partial muscularization, and full muscularization) of α-SMA-positive distal pulmonary arteries. Specifically, in each section, about 100 pulmonary arteries having diameters of from 20 μm to 70 μm were each assessed for a double elastic lamina. In this assessment, a pulmonary artery in which a double elastic lamina including an internal elastic lamina and an external elastic lamina was visible for less than 50% of the entire periphery of the pulmonary artery was considered non-muscularized, a pulmonary artery in which the double elastic lamina was visible for 50% or more and less than 100% of the entire periphery of the pulmonary artery was considered partially muscularized, and a pulmonary artery in which the double elastic lamina was visible throughout the entire periphery of the pulmonary artery was considered fully muscularized.
# Eight-week-old male C57BL6/J mice (n=8 per group) were administered cinobufotalin (5 mg/kg/day, daily for 28 days, intraperitoneal administration). A product available from Sigma (Cat. No. C1147-10MG, Cinobufotalin 10 mg) was used as cinobufotalin. A preparation method for a test solution for a treatment group was as follows: cinobufotalin was first dissolved at 30 μg/μl in 100% DMSO and the solution was further dissolved in PBS so that the final concentration of cinobufotalin was 0.3 μg/μl. A test solution for a control group was prepared by dissolving DMSO at the same concentration in PBS (1% DMSO). […]
# SeP = SeP protein levels in lungs of Sugen/hypoxia rats; type: in vivo, rat; conditions: 5 mg/kg oral for 28 days, hypoxia+SU5416 rats
# Experimental: (§1) Rats (Sprague-Dawley, male, 7- to 10-week-old) were injected subcutaneously with a VEGF-receptor inhibitor SU5416 (Sigma-Aldrich) (20 mg per kg body weight) under isoflurane anesthesia and were then exposed to hypoxia (10% O2) for 3 weeks (hypoxia+SU5416). On day 21, the rats were randomized to be orally administered sanguinarine (5 mg per kg body weight) or vehicle under normoxia (21% O2) for 4 weeks. The vehicle administration group is expressed as vehicle controls. In addition, rats injected with saline on day 1 and exposed to normoxia for 7 weeks were used as (normoxic) controls. […] On day 49, the rats were anesthetized with isoflurane (1.0%) to measure RVSP, RVH, and pulmonary vascular remodeling. Thus, the development of PH was assessed.
# FIG. 10(D) includes an image and graph for showing quantification of SeP protein levels in normoxic control rats or hypoxia+SU5416 rats with or without sanguinarine treatment. Data represent the mean±SEM. *p<0.05. Comparisons of parameters were performed with one-way or two-way ANOVA and Tukey's HSD test for multiple comparisons.
# selenoprotein P protein = assay: Western blotting of selenoprotein P protein in lungs of hypoxia-induced pulmonary hypertension mice; type: in vivo, mouse; conditions: C57BL/6 mice, 5 mg/kg/day oral, daily for 28 days, 10% hypoxia
# Experimental: In addition, regarding sanguinarine, C57BL/6 mice (n=8 per group) were administered sanguinarine (5 mg/kg/day, daily for 28 days, oral administration). At the same time, the mice were bred under a 10% hypoxic environment. Thus, a hypoxia-induced pulmonary hypertension mouse model was generated and investigated.
# [2] = Body weight and food consumption in Sugen/hypoxia rats; type: in vivo, rat; conditions: 5 mg/kg oral for 28 days
# Experimental: as §1
# FIG. 10(B) is a graph for showing the time-course of body weight from the starting point of administration of sanguinarine or vehicle for 4 weeks in Sugen/hypoxia rats (n=12). Data represent the mean±SEM.
# Sugen/hypoxia rat model = assay: Sugen/hypoxia-induced pulmonary hypertension rat model (RVSP, RVH); type: in vivo; conditions: 5 mg/kg oral for 28 days, started day 21 after hypoxia+SU5416
# Experimental: In this test, littermates or vehicle treatment groups were used as controls. A Sugen/hypoxia-induced hypertension rat model was used to assess pulmonary hypertension (PH) (Non-patent Literature 4). In order to assess the development of pulmonary hypertension, right ventricular systolic pressure (RVSP) and right ventricular hypertrophy (RVH) were measured (Non-patent Literatures 4 to 6).
# For right heart catheterization, a 1.4-F (for rats) pressure measurement catheter (Transonic Scisense) was inserted into the right jugular vein and advanced into the right ventricle to measure RVSP (Non-patent Literature 7).
# In the Sugen/hypoxia model, rats (Sprague-Dawley, male, 7- to 10-week-old) were injected subcutaneously with a VEGF-receptor inhibitor SU5416 (Sigma-Aldrich, St Louis, Mo.) (20 mg per kg body weight) under isoflurane anesthesia and were then exposed to hypoxia (10% O2) for 3 weeks. […] All data were analyzed using the PowerLab data acquisition system (AD Instruments, Bella Vista, Australia) and were averaged over 50 sequential beats (Non-patent Literatures 4 to 6).
# Formaldehyde-fixed dry hearts were dissected and the right ventricular free wall (RV) was removed from the left ventricle (LV) and septum. The ratio of right ventricular free wall (RV) weight to left ventricle plus septum (LV+Septum) weight [RV/(LV+S)] was measured to assess the extent of RVH (Non-patent Literature 4). […]
# [3] = 5 mg/kg/day intraperitoneal, daily for 28 days
# [4] = 1 mg/kg/day intraperitoneal, alternate days for 28 days
# [5] = 5 mg/kg/day oral, daily for 28 days
structure (smiles),measurement,setting,value
"CC(=O)OC1C(c2ccc(=O)oc2)C2(C)CCC3C(CCC4(O)CC(O)CCC34C)C23OC13 [cinobufotalin, [(1R,2R,2aR,3aS,5aS,7S,9aR,11aR)-5a,7-dihydroxy-9a,11a-dimethyl-1-(2-oxo-2H-pyran-5-yl)hexadecahydronaphtho[1′,2′:6,7]indeno[1,7a-b]oxiren-2-yl acetate]]",right ventricular hypertrophy (RV/(LV+Septum)) vs control group,[1]; [3],significantly reduced
same,right ventricular systolic pressure vs control group,[1]; [3],significantly reduced
"COC(=O)[C@]1(C)CC[C@]2(C)CC[C@]3(C)C4=CC=C5C(=CC(=O)C(O)=C5C)[C@]4(C)CC[C@@]3(C)[C@@H]2C1 [pristimerin, methyl (2R,4aS,6aS,12bR,14aS,14bR)-10-hydroxy-2,4a,6a,9,12b,14a-hexamethyl-11-oxo-1,2,3,4,4a,5,6,6a,11,12b,13,14,14a,14b-tetradecahydropicene-2-carboxylate]",right ventricular hypertrophy (RV/(LV+Septum)) vs control group,[1]; [4],significantly reduced
same,right ventricular systolic pressure vs control group,[1]; [4],significantly reduced
C[n+]1cc2c3c(ccc2c2ccc4cc5c(cc4c21)OCO5)OCO3 [sanguinarine],SeP expression in the lungs,SeP,significantly reduced
same,selenoprotein P protein expression in the lungs vs control,selenoprotein P protein,significantly suppressed
same,right ventricular hypertrophy (RV/(LV+Septum)) vs control group,[1]; [5],significantly reduced
same,right ventricular systolic pressure vs control group,[1]; [5],significantly reduced
same,influence on body weight vs vehicle control,[2],no significant differences; also recorded: no influence
same,influence on food consumption vs vehicle control,[2],no significant differences; also recorded: no influence
same,RVH [RV/(LV+S)] vs vehicle controls,Sugen/hypoxia rat model,reduced
same,RVSP vs vehicle controls,Sugen/hypoxia rat model,reduced
